Test results: patent US20240360178A1, “MACROCYCLIC IMMUNOMODULATORS” (Bristol-Myers Squibb Company, priority 2021, published 2024)
Positions of bridges follow the written chain, without caps; N, C: chain ends. Non-standard residues stand in square brackets, D forms with d. Residues, ends and D or L forms follow the SMILES beside them. *: point of attachment. Phe(4-CONH2) = NC(=O)c1ccc(C[C@H](N)C(=O)O)cc1; Phe(4-CH2NH2) = NCc1ccc(C[C@H](N)C(=O)O)cc1; Bip = N[C@@H](Cc1ccc(-c2ccccc2)cc1)C(=O)O; NMeF = CN[C@@H](Cc1ccccc1)C(=O)O; hSer = N[C@@H](CCO)C(=O)O; Carboxymethyl = O=C(O)C*; NMeA = CN[C@@H](C)C(=O)O; Dab = NCC[C@H](N)C(=O)O; Dap = NC[C@H](N)C(=O)O; Sar = CNCC(=O)O

Target: T1, human PD-1 (Jurkat-PD-1 cells) / PE-labeled human PD-L1-Ig (Homo sapiens, UniProt Q15116)
T1 construct: expressed in transfected cells; host or cells: Jurkat cell line over-expressing human PD-1
Experiment: Jurkat-PD-1 Cell Binding High-Content Screening Assay (CBA); Jurkat hPD1-PDL1 assay
Conditions: Jurkat cell line over-expressing human PD-1; PE-labeled PD-L1-Ig 20 nM final; compound incubated 2 hours at 37° C.; read-out: Jurkat HPD1-PDL1 IC50
Outline: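 Binding of phycoerythrin-conjugated PD-L1-Ig (20 nM final) to PD-1-overexpressing Jurkat cells was read by high-content imaging. Cells in DMEM/10% FCS were exposed to compound for 2 hours at 37° C before labeled ligand was added.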

T1 sequence (Q15116 25-288): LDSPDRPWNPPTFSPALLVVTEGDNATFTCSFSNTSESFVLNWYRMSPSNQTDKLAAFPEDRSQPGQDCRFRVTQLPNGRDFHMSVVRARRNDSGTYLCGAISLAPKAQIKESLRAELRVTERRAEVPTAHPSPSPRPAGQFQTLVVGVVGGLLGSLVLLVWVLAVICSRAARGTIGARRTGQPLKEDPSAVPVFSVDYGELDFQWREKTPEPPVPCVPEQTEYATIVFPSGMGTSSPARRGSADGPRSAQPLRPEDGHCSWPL

SMILES | IC50 [nM]
CC(C)C[C@@H]1NC(=O)[C@H](Cc2c[nH]c3ccccc23)NC(=O)[C@H](CC(=O)O)NC(=O)[C@H](Cc2ccc(O)cc2)NC(=O)[C@H](Cc2ccccc2)NC(=O)CSC[C@@H](C(=O)N[C@@H](CCC(=O)O)C(N)=O)NC(=O)[C@H](CO)NC(=O)[C@H](C(C)C)NC(=O)[C@H](CC(C)C)NC(=O)[C@H](CC(N)=O)NC(=O)CN(C)C(=O)[C@H](C)N(C)C(=O)[C@H](C(C)C)NC(=O)[C@H](Cc2ccc(-c3ccccc3)cc2)NC1=O [Example 1251] ({CH2CO}-FYDWL[Bip]V[NMeA][Sar]NLVSCE-NH2; thioether N-14) | 360
CC(C)C[C@@H]1NC(=O)[C@H](Cc2c[nH]c3ccccc23)NC(=O)[C@H](CC(=O)O)NC(=O)[C@H](Cc2ccc(O)cc2)NC(=O)[C@H](Cc2ccccc2)NC(=O)CSC[C@@H](C(=O)N[C@@H](C)C(N)=O)NC(=O)[C@H](CO)NC(=O)[C@H](C(C)C)NC(=O)[C@H](CC(C)C)NC(=O)[C@H](CC(N)=O)NC(=O)CN(C)C(=O)[C@H](C)N(C)C(=O)[C@H](C(C)C)NC(=O)[C@H](Cc2ccc(-c3ccccc3)cc2)NC1=O [Example 1252] ({CH2CO}-FYDWL[Bip]V[NMeA][Sar]NLVSCA-NH2; thioether N-14) | 190
CC(C)C[C@@H]1NC(=O)[C@H](Cc2c[nH]c3ccccc23)NC(=O)[C@H](CC(=O)O)NC(=O)[C@H](Cc2ccc(O)cc2)NC(=O)[C@H](Cc2ccccc2)NC(=O)CSC[C@@H](C(=O)N[C@@H](CCCCN)C(N)=O)NC(=O)[C@H](CO)NC(=O)[C@H](C(C)C)NC(=O)[C@H](CC(C)C)NC(=O)[C@H](CC(N)=O)NC(=O)CN(C)C(=O)[C@H](C)N(C)C(=O)[C@H](C(C)C)NC(=O)[C@H](Cc2ccc(-c3ccccc3)cc2)NC1=O [Example 1253] ({CH2CO}-FYDWL[Bip]V[NMeA][Sar]NLVSCK-NH2; thioether N-14) | 710
CC(C)C[C@@H]1NC(=O)[C@H](Cc2c[nH]c3ccccc23)NC(=O)[C@H](CC(=O)O)NC(=O)[C@H](Cc2ccc(O)cc2)NC(=O)[C@H](Cc2ccccc2)NC(=O)CSC[C@@H](C(=O)N[C@@H](CCCNC(=N)N)C(N)=O)NC(=O)[C@H](CO)NC(=O)[C@H](C(C)C)NC(=O)[C@H](CC(C)C)NC(=O)[C@H](CC(N)=O)NC(=O)CN(C)C(=O)[C@H](C)N(C)C(=O)[C@H](C(C)C)NC(=O)[C@H](Cc2ccc(-c3ccccc3)cc2)NC1=O [Example 1254] ({CH2CO}-FYDWL[Bip]V[NMeA][Sar]NLVSCR-NH2; thioether N-14) | 850
CC(C)C[C@@H]1NC(=O)[C@H](CCCNC(=N)N)NC(=O)[C@H](Cc2ccccc2)N(C)C(=O)[C@H](C)N(C)C(=O)[C@H](CCCNC(=N)N)NC(=O)[C@H](Cc2ccc(-c3ccccc3)cc2)NC(=O)[C@H](C(C)C)NC(=O)[C@H](Cc2c[nH]c3ccccc23)NC(=O)[C@H](CC(=O)O)NC(=O)[C@H](Cc2ccc(O)cc2)NC(=O)CNC(=O)CSC[C@@H](C(=O)NCC(N)=O)NC(=O)[C@H](CO)NC(=O)[C@H](C(C)C)NC1=O [Example 1258] ({CH2CO}-GYDWV[Bip]R[NMeA][NMeF]RLVSCG-NH2; thioether N-14) | 240
CC(C)C[C@@H]1NC(=O)[C@H](CCCNC(=N)N)NC(=O)[C@H](Cc2ccccc2)N(C)C(=O)[C@H](C)N(C)C(=O)[C@H](CCCNC(=N)N)NC(=O)[C@H](Cc2ccc(-c3ccccc3)cc2)NC(=O)[C@H](C(C)C)NC(=O)[C@H](Cc2c[nH]c3ccccc23)NC(=O)[C@H](CC(=O)O)NC(=O)[C@H](Cc2ccc(O)cc2)NC(=O)[C@H](CN)NC(=O)CSC[C@@H](C(=O)NCC(N)=O)NC(=O)[C@H](CO)NC(=O)[C@H](C(C)C)NC1=O [Example 1264] ({CH2CO}-[Dap]YDWV[Bip]R[NMeA][NMeF]RLVSCG-NH2; thioether N-14) | 160

More lines, now with the values ahead:

IC50 [nM] | SMILES
320 | CC(C)C[C@@H]1NC(=O)[C@H](CCCNC(=N)N)NC(=O)[C@H](Cc2ccccc2)N(C)C(=O)[C@H](C)N(C)C(=O)[C@H](CCCNC(=N)N)NC(=O)[C@H](Cc2ccc(-c3ccccc3)cc2)NC(=O)[C@H](C(C)C)NC(=O)[C@H](Cc2c[nH]c3ccccc23)NC(=O)[C@H](CC(=O)O)NC(=O)[C@H](Cc2ccc(O)cc2)NC(=O)[C@H](Cc2ccccc2)N(C)C(=O)CSC[C@@H](C(=O)NCC(N)=O)NC(=O)[C@H](CO)NC(=O)[C@H](C(C)C)NC1=O [Example 1250] ({CH2CO}-[NMeF]YDWV[Bip]R[NMeA][NMeF]RLVSCG-NH2; thioether N-14)
430 | CC(C)C[C@@H]1NC(=O)[C@H](CCCNC(=N)N)NC(=O)[C@H](Cc2ccccc2)N(C)C(=O)[C@H](CCN)NC(=O)[C@H](CCCNC(=N)N)NC(=O)[C@H](Cc2ccc(-c3ccccc3)cc2)NC(=O)[C@H](C(C)C)NC(=O)[C@H](Cc2c[nH]c3ccccc23)NC(=O)[C@H](CC(=O)O)NC(=O)[C@H](Cc2ccc(O)cc2)NC(=O)[C@H](Cc2ccccc2)NC(=O)CSC[C@@H](C(=O)NCC(N)=O)NC(=O)[C@H](CO)NC(=O)[C@H](C(C)C)NC1=O [Example 1255] ({CH2CO}-FYDWV[Bip]R[Dab][NMeF]RLVSCG-NH2; thioether N-14)
340 | CC(C)C[C@@H]1NC(=O)[C@H](CCCNC(=N)N)NC(=O)[C@H](Cc2ccccc2)N(C)C(=O)[C@H](C)N(C)C(=O)[C@H](CCCNC(=N)N)NC(=O)[C@H](Cc2ccc(-c3ccccc3)cc2)NC(=O)[C@H](C(C)C)NC(=O)[C@H](Cc2c[nH]c3ccccc23)NC(=O)[C@H](CC(=O)O)NC(=O)[C@H](Cc2ccc(O)cc2)NC(=O)[C@H](Cc2ccc(CN)cc2)NC(=O)CSC[C@@H](C(=O)NCC(N)=O)NC(=O)[C@H](CO)NC(=O)[C@H](C(C)C)NC1=O [Example 1256] ({CH2CO}-[Phe(4-CH2NH2)]YDWV[Bip]R[NMeA][NMeF]RLVSCG-NH2; thioether N-14)
80 | CC(C)C[C@@H]1NC(=O)[C@H](CCCNC(=N)N)NC(=O)[C@H](Cc2ccccc2)N(C)C(=O)[C@H](C)N(C)C(=O)[C@H](CCCNC(=N)N)NC(=O)[C@H](Cc2ccc(-c3ccccc3)cc2)NC(=O)[C@H](C(C)C)NC(=O)[C@H](Cc2c[nH]c3ccccc23)NC(=O)[C@H](CC(=O)O)NC(=O)[C@H](Cc2ccc(O)cc2)NC(=O)[C@H](Cc2ccc(C(N)=O)cc2)NC(=O)CSC[C@@H](C(=O)NCC(N)=O)NC(=O)[C@H](CO)NC(=O)[C@H](C(C)C)NC1=O [Example 1257] ({CH2CO}-[Phe(4-CONH2)]YDWV[Bip]R[NMeA][NMeF]RLVSCG-NH2; thioether N-14)
260 | COCC[C@@H]1NC(=O)[C@H](C(C)C)NC(=O)[C@H](CC(C)C)NC(=O)[C@H](CCCNC(=N)N)NC(=O)[C@H](Cc2ccccc2)N(C)C(=O)[C@H](C)N(C)C(=O)[C@H](CCCNC(=N)N)NC(=O)[C@H](Cc2ccc(-c3ccccc3)cc2)NC(=O)[C@H](C(C)C)NC(=O)[C@H](Cc2c[nH]c3ccccc23)NC(=O)[C@H](CC(=O)O)NC(=O)[C@H](Cc2ccc(O)cc2)NC(=O)[C@H](Cc2ccccc2)NC(=O)CSC[C@@H](C(=O)NCC(N)=O)NC1=O [Example 1259] ({CH2CO}-FYDWV[Bip]R[NMeA][NMeF]RLV[hSer](Me)CG-NH2; thioether N-14)
30 | CC(C)C[C@@H]1NC(=O)[C@H](CCCNC(=N)N)NC(=O)[C@H](Cc2ccccc2)N(C)C(=O)[C@H](C)N(C)C(=O)[C@H](CCCNC(=N)N)NC(=O)[C@H](Cc2ccc(-c3ccccc3)cc2)NC(=O)[C@H](C(C)C)NC(=O)[C@H](Cc2c[nH]c3ccccc23)NC(=O)[C@H](CC(=O)O)NC(=O)[C@H](Cc2ccc(OCC(=O)O)cc2)NC(=O)[C@H](Cc2ccccc2)NC(=O)CSC[C@@H](C(=O)NCC(N)=O)NC(=O)[C@H](CO)NC(=O)[C@H](C(C)C)NC1=O [Example 1275] ({CH2CO}-FY(Carboxymethyl)DWV[Bip]R[NMeA][NMeF]RLVSCG-NH2; thioether N-14)
